Like-named read-outs stand apart in the source and are kept apart here.
What was measured:
[1] = for Unstandardised coefficient B, ratio noroxycodone/oxycodone / Unstandardised coefficient B, oxycodone serum concentration / Unstandardised coefficient B, ratio oxymorphone/oxycodone: log 10 form
CYP3A4 = conditions: cited from earlier work
[2] = format: in vivo, human; conditions: for Dose-corrected serum concentration, 25th percentile / Dose-corrected serum concentration, 75th percentile / Dose-corrected serum concentration, mean / Dose-corrected serum concentration, median / Dose-corrected serum concentration, minimum to maximum / Uncorrected serum concentration, 25th percentile / Uncorrected serum concentration, 75th percentile / Uncorrected serum concentration, mean / Uncorrected serum concentration, minimum to maximum / Uncorrected serum concentration, median / Ratio metabolite/oxycodone serum concentration, 25th percentile / Ratio metabolite/oxycodone serum concentration, 75th percentile / Ratio metabolite/oxycodone serum concentration, mean / Ratio metabolite/oxycodone serum concentration, median / Ratio metabolite/oxycodone serum concentration, minimum to maximum: hospitalised patients; for Uncorrected serum concentration, median: oral oxycodone, trough sample; for Serum concentration, range / Serum concentration, median: partly different from Table 3; for Ratio metabolite/oxycodone serum concentration, 25th percentile / Ratio metabolite/oxycodone serum concentration, 75th percentile / Ratio metabolite/oxycodone serum concentration, mean / Ratio metabolite/oxycodone serum concentration, median / Ratio metabolite/oxycodone serum concentration, minimum to maximum: uncorrected serum concentrations
CYP2D6 = conditions: healthy volunteers; cited from earlier work
[3] = Mann-Whitney U test; 35 users
[4] = cited from earlier work
[5] = cited from earlier work; remark: listed apart in the source
[6] = cited from earlier work; remark: listed apart in the source
[7] = factor: CYP3A4 inducer (yes = 1)
[8] = factor: CYP3A4 inhibitor (yes = 1)
[9] = factor: sex (men = 1, women = 0)
[10] = factor: time from last oxycodone dose to blood sample

Row | SMILES | 95% CI for the mean ratio metabolite/oxycodone [2] [nM] | 95% CI for the uncorrected mean serum concentration [2] [nM] | Dose-corrected serum concentration, 25th percentile [2] | Dose-corrected serum concentration, 75th percentile [2] | Dose-corrected serum concentration, mean [2] | Dose-corrected serum concentration, median [2] | Dose-corrected serum concentration, minimum to maximum [2] | Uncorrected serum concentration, 25th percentile [2] [nM] | Uncorrected serum concentration, 75th percentile [2] [nM] | Uncorrected serum concentration, mean [2] [nM] | Uncorrected serum concentration, minimum to maximum [2] | Uncorrected serum concentration, median [2] [nM] | Serum concentration, range [2] | Ratio metabolite/oxycodone serum concentration, 25th percentile [2] | Ratio metabolite/oxycodone serum concentration, 75th percentile [2] | Ratio metabolite/oxycodone serum concentration, mean [2] | Ratio metabolite/oxycodone serum concentration, median [2] | Ratio metabolite/oxycodone serum concentration, minimum to maximum [2] | AUC after blocking the CYP2D6 metabolic pathways of oxycodone with quinidine (CYP2D6) | Serum concentration, median [2] [nM] | also measured
1 | COc1ccc2c3c1O[C@H]1C(=O)CC[C@@]4(O)[C@@H](C2)NCC[C@]314 [Noroxycodone, noroxycodone] | 1.4 to 1.8 | 174 to 245 | 103 nM × 100 mg 24 h^−1/dose 24 h^−1 | 261 nM × 100 mg 24 h^−1/dose 24 h^−1 | 212 nM × 100 mg 24 h^−1/dose 24 h^−1 | 161 nM × 100 mg 24 h^−1/dose 24 h^−1 | 0–3,032 nM × 100 mg 24 h^−1/dose 24 h^−1 | 44 | 211 | 209 | 0–3,571 nM | 101 | 0 to 4,858 nM | 0.7 | 1.9 | 1.6 | 1.1 | 0.1–24.4 | increased | – | Unstandardised coefficient B, ratio noroxycodone/oxycodone ([1]; factor: BMI): −0.009; Unstandardised coefficient B, ratio noroxycodone/oxycodone [1, 7]: 0.602; Unstandardised coefficient B, ratio noroxycodone/oxycodone [1, 8]: −0.294; Unstandardised coefficient B, ratio noroxycodone/oxycodone ([1]; factor: albumin): 0.006; Unstandardised coefficient B, ratio noroxycodone/oxycodone ([1]; factor: glomerular filtration rate): −0.001; Unstandardised coefficient B, ratio noroxycodone/oxycodone ([1]; factor: oxycodone total daily dose, n = 396, R^2 = 0.19): 0.001; Unstandardised coefficient B, ratio noroxycodone/oxycodone [1, 9]: −0.110; Unstandardised coefficient B, ratio noroxycodone/oxycodone ([1]; factor: systemic steroids (yes = 1)): −0.070; Unstandardised coefficient B, ratio noroxycodone/oxycodone [1, 10]: 0.012; Predicted higher noroxycodone/oxycodone ratio in users of CYP3A4 inducers ([1]; human, in vivo): about 4 times; Predicted lower noroxycodone/oxycodone ratio in users of systemic steroids ([1]; human, in vivo): 15%; Cmax after blocking the CYP3A4 metabolic pathway with ketoconazole (CYP3A4): decreased
2 | O=C1CC[C@@]2(O)[C@H]3Cc4ccc(O)c5c4[C@@]2(CCN3)[C@H]1O5 [Noroxymorphone, noroxymorphone] | – | – | 18 nM × 100 mg 24 h^−1/dose 24 h^−1 | 44 nM × 100 mg 24 h^−1/dose 24 h^−1 | 34 nM × 100 mg 24 h^−1/dose 24 h^−1 | 29 nM × 100 mg 24 h^−1/dose 24 h^−1 | 0–360 nM × 100 mg 24 h^−1/dose 24 h^−1 | 8 | 39 | 30 | 0 to 509 nM | 17 | 0 to 509 nM | – | – | – | – | – | – | 17 | –
3 | COc1ccc2c3c1O[C@H]1C(=O)CC[C@@]4(O)[C@@H](C2)N(C)CC[C@]314 [Oxycodone, oxycodone, reference compound] | – | 139 to 183 | 90 nM × 100 mg 24 h^−1/dose 24 h^−1 | 225 nM × 100 mg 24 h^−1/dose 24 h^−1 | 186 nM × 100 mg 24 h^−1/dose 24 h^−1 | 144 nM × 100 mg 24 h^−1/dose 24 h^−1 | 0–1,294 nM × 100 mg 24 h^−1/dose 24 h^−1 | 43 | 201 | 161 | 0–1,890 nM | 97 | 0 to 1,890 nM | – | – | – | – | – | increased | – | Serum concentration, users versus non-users of CYP2D6 inhibitors [3]: did not differ; Predicted higher oxycodone serum concentration in men than in women ([1]; calculated from the regression analysis): about 30%; Unstandardised coefficient B, oxycodone serum concentration [1, 7]: −0.786; Unstandardised coefficient B, oxycodone serum concentration [1, 8]: 0.204; Unstandardised coefficient B, oxycodone serum concentration ([1]; factor: oxycodone total daily dose, n = 433, R^2 = 0.35): 0.002; Unstandardised coefficient B, oxycodone serum concentration [1, 9]: 0.113; Unstandardised coefficient B, oxycodone serum concentration [1, 10]: −0.027; Predicted higher oxycodone serum concentration in users of CYP3A4 inhibitors ([1]; versus non-users): 60%; Predicted lower oxycodone serum concentration in users of CYP3A4 inducer drugs ([1]; versus those without CYP3A4 inducer drug): 84%; Plasma concentrations in elderly versus younger patients [4]: may have higher; Oral bioavailability [5]: 60–87%
4 | CN1CC[C@]23c4c5ccc(O)c4O[C@H]2C(=O)CC[C@@]3(O)[C@H]1C5 [Oxymorphone, oxymorphone] | 0.020 to 0.025 | 2.3 to 3.0 | 1.2 nM × 100 mg 24 h^−1/dose 24 h^−1 | 4.2 nM × 100 mg 24 h^−1/dose 24 h^−1 | 3.4 nM × 100 mg 24 h^−1/dose 24 h^−1 | 2.2 nM × 100 mg 24 h^−1/dose 24 h^−1 | 0–34 nM × 100 mg 24 h^−1/dose 24 h^−1 | 0.7 | 3.2 | 2.6 | 0 to 25 nM | 1.5 | 0 to 27 nM | 0.01 | 0.03 | 0.02 | 0.02 | 0.00032–0.21 | decreased | 1.5 | Serum concentration, users versus non-users of CYP2D6 inhibitors [3]: did not differ; Unstandardised coefficient B, ratio oxymorphone/oxycodone [1, 7]: 0.607; Unstandardised coefficient B, ratio oxymorphone/oxycodone ([1]; factor: number of medications (excluding opioids) taken in the last 24 h): −0.024; Unstandardised coefficient B, ratio oxymorphone/oxycodone ([1]; factor: oxycodone total daily dose, n = 438, R^2 = 0.05): −0.0004; Concentrations in patients with impaired hepatic function [4]: lower; AUC after blocking the CYP3A4 metabolic pathway with ketoconazole (CYP3A4): increased
5 | CN1CC[C@]23c4c5ccc(O)c4O[C@H]2[C@@H](O)C=C[C@H]3[C@H]1C5 [morphine] | – | – | – | – | – | – | – | – | – | – | – | – | – | – | – | – | – | – | – | – | Additional morphine needed by men compared with women for pain relief [6]: 30–40%

Source: article PMC3076582 (European Journal of Clinical Pharmacology, 2010)
